Measurements from US4215069A, “Arylthiovinylcyclopropanecarboxylate intermediates” (FMC Corporation, priority 1979, dated 1980).

Experiments:
[1] = test system: milkweed bug (Oncopeltus faciatus [Dallas]); test: Initial contact activity against milkweed bug (percent kill); format: in vivo; settings: 72 hours exposure, read-out: Percent Kill MWB, initial activity
Protocol: (§1) The test compound was dissolved in a small amount of acetone, and the acetone solution was dispersed in water containing one drop of isooctylphenyl polyethoxyethanol to make a solution having 1250 ppm (w/w) active ingredient. Aliquots of this solution were diluted with an appropriate amount of water to provide solutions containing various concentrations of active ingredient. Test organisms and techniques were as follows: the activity against Mexican bean beetle (Epilachna varivestis Muls.) and southern armyworm (Spodoptera eridania [Cram.]) was evaluated by dipping the leaves of pinto bean plants into the test solution and infesting the leaves with the appropriate immature-form insects when the foliage had dried. The activity against the pea aphid (Acyrthosiphon pisum [Harris]) was evaluated on broad bean plants whose leaves were dipped before infestation with adult aphids. The activity against twospotted spider mites (Tetranychus urticae Koch) was evaluated on pinto bean plants whose leaves were dipped after infestation with adult mites. The activity against the milkweed bug (Oncopeltus faciatus [Dallas]) was evaluated by spraying the test solutions into glass dishes or jars containing the adult insects. Following application of the compound and infestation the tests were maintained in a holding room at 80° F. and 50% relative humidity for an exposure period of 72 hours. At the end of this time the dead and living insects or mites were counted and the percent kill was calculated. Results of these tests are summarized in Table I. Most of the compounds tested were active against all the insects.

[2] = test system: Mexican bean beetle (Epilachna varivestis Muls.); test: Initial contact activity against Mexican bean beetle (percent kill); format: in vivo; settings: 72 hours exposure, read-out: Percent Kill MBB, initial activity
Protocol: as §1

[3] = test system: southern armyworm (Spodoptera eridania [Cram.]); test: Initial contact activity against southern armyworm (percent kill); format: in vivo; settings: 72 hours exposure, read-out: Percent Kill AW, initial activity
Protocol: as §1

[4] = test system: pea aphid (Acyrthosiphon pisum [Harris]); test: Initial contact activity against pea aphid (percent kill); format: in vivo; settings: 72 hours exposure, read-out: Percent Kill PA, initial activity
Protocol: as §1

[5] = test system: twospotted spider mites (Tetranychus urticae Koch); test: Initial contact activity against twospotted spider mite (percent kill); format: in vivo; settings: 72 hours exposure, read-out: Percent Kill SM, initial activity
Protocol: as §1

Milkweed bug = test: 7-day residual contact activity against milkweed bug (percent kill); format: in vivo, Oncopeltus faciatus; settings: Oncopeltus fasciatus, 168 h, treated surface aged seven days in light and air, read-out: Percent Kill MWB, 7-day residual activity
Protocol: as §1
(§2) The residual contact activity of certain of the compounds was determined on the same organisms using the techniques described above, except that in each case the treated surface was allowed to dry and was exposed to normal light and air for seven days before introduction of the mites or insects. The seven day residual activity was minimal for the mite but substantial against the remaining organisms. Again, the remarkable activity of some of these compounds against milkweed bug and Mexican bean beetle was noted.

Southern armyworm = test: 7-day residual contact activity against southern armyworm (percent kill); format: in vivo; settings: Spodoptera eridania, 168 h, treated surface aged seven days in light and air, read-out: Percent Kill AW, 7-day residual activity
Protocol: as §1, §2

Pea aphid = test: 7-day residual contact activity against pea aphid (percent kill); format: in vivo; settings: Acyrthosiphon pisum, 168 h, treated surface aged seven days in light and air, read-out: Percent Kill PA, 7-day residual activity
Protocol: as §1, §2

Twospotted spider mite = test: 7-day residual contact activity against twospotted spider mite (percent kill); format: in vivo; settings: Tetranychus urticae, 168 h, treated surface aged seven days in light and air, read-out: Percent Kill SM, 7-day residual activity
Protocol: as §1, §2

Mexican bean beetle = test: 7-day residual contact activity against Mexican bean beetle (percent kill); format: in vivo; settings: Epilachna varivestis, 168 h, treated surface aged seven days in light and air, read-out: Percent Kill MBB, 7-day residual activity
Protocol: as §1, §2

[6] = prior art, Elliott, et al.; cited from earlier work

Row | Compound | mortality at 78 ppm [1] [%] | mortality at 312 ppm [1] [%] | mortality at 1250 ppm [1] [%] | mortality at 5 ppm [2] [%] | mortality at 20 ppm [2] [%] | mortality at 78 ppm [2] [%] | mortality at 1250 ppm [2] [%] | mortality at 5 ppm [3] [%] | mortality at 20 ppm [3] [%] | mortality at 78 ppm [3] [%] | mortality at 1250 ppm [3] [%] | mortality at 78 ppm [4] [%] | mortality at 312 ppm [4] [%] | mortality at 1250 ppm [4] [%] | mortality at 312 ppm [5] [%] | mortality at 1250 ppm [5] [%] | activity at 312 ppm (Milkweed bug) [%] | activity at 1250 ppm (Milkweed bug) [%] | activity at 20 ppm (Southern armyworm) [%] | activity at 78 ppm (Southern armyworm) [%] | further results
1 | CC1(C)C(C=CSc2ccccc2)C1C(=O)OC(C#N)c1cccc(Oc2ccccc2)c1 (mixture of isomers) [Example 2, α-cyano-3-phenoxybenzyl cis,trans-3-[2-(E,Z)-phenylthioethenyl]-2,2-dimethylcyclopropanecarboxylate] | 20 | 90 | 100 | 0 | 22 | 80 | 100 | 0 | 0 | 0 | 41 | 0 | 5 | 75 | 0 | 0 | 0 | 5 | 0 | 0 | mortality at 20 ppm [1]: 0%; mortality at 1.2 ppm [2]: 6%; mortality at 1.2 ppm [3]: 0%; mortality at 20 ppm [4]: 0%; mortality at 20 ppm [5]: 0%; mortality at 78 ppm [5]: 0%; activity at 78 ppm (Milkweed bug): 5%; activity at 312 ppm (Southern armyworm): 0%; activity at 1250 ppm (Southern armyworm): 0%; activity at 78 ppm (Pea aphid): 30%; activity at 312 ppm (Pea aphid): 23%; activity at 1250 ppm (Pea aphid): 100%; activity at 1250 ppm (Twospotted spider mite): 0%
2 | CC1(C)C(C=C(Cl)Sc2ccccc2)C1C(=O)OC(C#N)c1cccc(Oc2ccccc2)c1 (mixture of isomers) [Example 3, α-cyano-3-phenoxybenzyl cis,trans-3-[2-(E,Z)-chloro-2-phenylthioethenyl]-2,2-dimethylcyclopropanecarboxylate] | 100 | 100 | 100 | 100 | 92 | 92 | 94 | 0 | 0 | 75 | 100 | 60 | 85 | 100 | 0 | 49 | 85 | 100 | 62 | 56 | mortality at 20 ppm [1]: 70%; mortality at 1.2 ppm [2]: 80%; mortality at 1.2 ppm [3]: 0%; mortality at 20 ppm [4]: 27%; mortality at 20 ppm [5]: 0%; mortality at 78 ppm [5]: 0%; activity at 78 ppm (Milkweed bug): 70%; activity at 2.5 ppm (Mexican bean beetle; 2.5 ppm): 66%; activity at 10 ppm (Mexican bean beetle; 10 ppm): 75%; activity at 39 ppm (Mexican bean beetle; 39 ppm): 100%; activity at 78 ppm (Mexican bean beetle): 100%; activity at 1250 ppm (Mexican bean beetle): 97%; activity at 312 ppm (Southern armyworm): 53%; activity at 1250 ppm (Southern armyworm): 100%; activity at 78 ppm (Pea aphid): 50%; activity at 312 ppm (Pea aphid): 65%; activity at 1250 ppm (Pea aphid): 100%; activity at 1250 ppm (Twospotted spider mite): 0%
3 | CC1(C)C(C=C(Cl)Sc2ccccc2)C1C(=O)OCc1cccc(Oc2ccccc2)c1 (mixture of isomers) [Example 4, 3-phenoxybenzyl cis,trans-3-[2-(E,Z)chloro-2-phenylthioethenyl]-2,2-dimethylcyclopropanecarboxylate] | 10 | 90 | 100 | 100 | 94 | 100 | 95 | 11 | 0 | 68 | 100 | 75 | 100 | 100 | 31 | 42 | 20 | 100 | 0 | 5 | mortality at 312 ppm ([2]; 312 ppm): 100%; mortality at 312 ppm ([3]; 312 ppm): 89%; activity at 20 ppm (Mexican bean beetle; 20 ppm): 89%; activity at 78 ppm (Mexican bean beetle): 100%; activity at 312 ppm (Mexican bean beetle; 312 ppm): 100%; activity at 1250 ppm (Mexican bean beetle): 100%; activity at 312 ppm (Southern armyworm): 55%; activity at 1250 ppm (Southern armyworm): 95%; activity at 312 ppm (Pea aphid): 0%; activity at 1250 ppm (Pea aphid): 85%; activity at 1250 ppm (Twospotted spider mite): 0%
4 | CC1(C)C(C=C(Cl)Cl)C1C(=O)OCc1cccc(Oc2ccccc2)c1 (stereo not drawn) [3-phenoxybenzyl 3-(β,β-dichlorovinyl)-2,2-dimethylcyclopropanecarboxylate] |  |  |  |  |  |  |  |  |  |  |  |  |  |  |  |  |  |  |  |  | resistance to photo-oxidative degradation in words [6]: remarkably resistent to photo-oxidative degradation
